Results as given in US20120245357A1, “ALR2 INHIBITORS AND THEIR SYNTHESIS FROM A NATURAL SOURCE” (COUNCIL OF SCIENTIFIC & INDUSTRIAL RESEARCH, priority 2010, published 2012).
Read-outs that look alike come from different tables or passages of the source.

Legend:
human recombinant ALR2 = target: T1, human recombinant ALR2 (Homo sapiens, UniProt P15121); test: ALR2 inhibition and determination of IC50 values (NADPH oxidation at 340 nm); format: biochemical
T1 construct: made in house; host or cells: E. coli JM101
Protocol: Transformed cells were selected on LB-medium containing 50 μg/ml spectinomycin and were grown overnight at 37° C. in LB broth containing M9 medium supplemented with 1% casamino acids, […] thiamine, and 0.05% trace metals. Culture was induced by isopropyl thiogalactoside (IPTG) at the final concentration of 1 mM and grown for additional 2 hours. Cells were harvested by spinning at 2000 g for 5 min at 4° C. and subjected to osmotic fractionation by suspending them in 20% sucrose, 30 mM Tris pH 7.5, 1 mM EDTA, and then cells were incubated at 23° C. for 15 min. After incubation, cells were recovered by centrifugation for 15 min at 2000 g at 4° C. Supernatant (sucrose wash) was reserved and pellet was resuspended in 1 ml of ice cold deionized water and incubated for 10 min on ice. Again cells were recovered by centrifugation at 12000 g for 5 min at 4° C. Supernatant (water wash) was reserved and pellet was resuspended in 1 ml of ice cold deionized water. Osmotic shock extract was further subjected to purification.
Osmotic shock extract was subjected to 50-80% ammonium sulphate fractionation followed by centrifugation at 10,000 g for 20 min. The pellet obtained was resuspended in 100-200 ml of 25 mM imidazole-HCl, pH 7.4. Crude lysate was applied to chromatography column packed with PBE 94 chromatofocussing resin, which had been previously equilibrated with 25 mM imidazole. Proteins were eluted from the column with 1:8 diluted polybuffer pH 7.4. Column eluant was continuously monitored by measuring absorbance at 280 nm. Fractions containing ALR2 activity were pooled and dialyzed against 10 mM potassium phosphate buffer containing 0.5 mM EDTA. Dialyzed samples were then applied to 30×2.5 cm at hydroxylapatite column equilibrated with 10 mM potassium phosphate buffer pH 7.4 containing 0.5 mM EDTA at a flow rate of 60 ml/h. The enzyme was eluted with a linear gradient 10-300 mM potassium phosphate buffer, pH 7.0. Fractions from each purification step are subjected to SDS-PAGE. Fractions containing ALR2 activity were pooled, concentrated and stored at −20° C. until further inhibition studies.
The assay mixture in 1 ml contained 50 mM potassium phosphate buffer, pH 6.2, 0.2 mM lithium sulfate, 5 mM 2-mercaptoethanol, 1 mM DL-glyceraldehyde, 0.1 mM NADPH and recombinant ALR2. Appropriate blanks were employed for corrections. The assay mixture was incubated at 37° C. and initiated by the addition of NADPH at 37° C. The change in the absorbance at 340 nm due to NADPH oxidation was monitored in a Lamda35 spectrophotometer (Perkin-Elmer, Shelton, USA).
For inhibition studies concentrated stocks of compounds prepared in dimethyl sulfoxide were used and the final concentration of DMSO was not more than 1% of the assay volume. Various concentrations of the above mentioned analogues were added to assay mixture of ALR2 and incubated for 5 min before initiating the reaction by NADPH as described above. The percentage inhibition was calculated considering the activity in the absence of compound as 100%. The IC50 values were determined by nonlinear regression analysis of the plot of percent inhibition versus log compound concentration.

human RBC = test: Inhibition of sorbitol formation in RBC under high glucose conditions (ex vivo); format: cell-based; conditions: human RBC incubated under high glucose condition (55 mM), 3 hrs
Protocol: In vitro incubation of RBC: Five mL blood was collected from healthy male volunteers on overnight fasting in heparinized tubes. Red blood cells were separated by centrifugation (3000 rpm/min about 30 min) and washed three times with isotonic saline at 4° C. Washed RBC were suspended in Kreb's-ringer bicarbonate buffer, pH 7.4 (pre-equilibrated with 5% CO2) and incubated at 37° C. in presence of 5% CO2 for 3 hrs under normal (5.5 mM) and high glucose (55 mM) conditions in duplicates. The effect of compounds on sorbitol accumulation was evaluated by incubating the RBC with different concentrations of compounds.
Estimation of sorbitol in RBC: At the end of incubation period, RBC was homogenized in 9 volumes of 0.8 M perchloric acid. The homogenate was centrifuged at 5,000 g at 4° C. for 10 min and the pH of the supernatant was adjusted to 3.5 with 0.5 M potassium carbonate. The sorbitol content of the supernatant was measured by fluorometric method using a spectrofluorometer (Jasco-FP-6500).

[1] = recombinant human ALR2 in vitro, average of four experimental values, read-out: IC-50
[2] = human recombinant ALR2, read-out: IC50 value, ALR2 inhibition

| Compound | % inhibition of sorbitol formation (human RBC) | IC50 (human recombinant ALR2; [2]) | also measured |
| --- | --- | --- | --- |
| COc1cc(C(CC(=O)N2CCC(c3c(-c4ccccc4)[nH]c4ccccc34)CC2=O)c2c(-c3ccccc3)[nH]c3ccccc23)cc(OC)c1OC (stereo not shown) [3e, 1-(3-(3,4,5-trimethoxyphenyl)-3-(2-phenyl-1H-indol-3-yl)propanoyl)-4-(2-phenyl-1H-indol-3-yl)piperidin-2-one] | 68% | – | IC50 (human recombinant ALR2; [1]): 4 µM |
| COc1cc(C(CC(=O)O)c2c(C)[nH]c3ccccc23)cc(OC)c1OC (stereo not shown) [compound 4, 3-(3,4,5-trimethoxyphenyl)-3-(2-methyl-1H-indol-3-yl)propanoic acid] | – | – | ALR2 inhibitory activity (in words) (human recombinant ALR2): inactive |
| COc1cc(C(CC(=O)N2CCC(c3c(C)[nH]c4ccccc34)CC2=O)c2c(C)[nH]c3ccccc23)cc(OC)c1OC (stereo not shown) [3d, 1-(3-(3,4,5-trimethoxyphenyl)-3-(2-methyl-1H-indol-3-yl)propanoyl)-4-(2-methyl-1H-indol-3-yl)piperidin-2-one] | – | – | IC50 (human recombinant ALR2; [1]): 40 µM |
| COc1cc(C(CC(=O)N2CCC=CC2=O)c2c[nH]c3ccc(Br)cc23)cc(OC)c1OC (racemic) [2g, 1-(3-(5-bromo-1H-indol-3-yl)-3-(3,4,5-trimethoxyphenyl)propanoyl)-5,6-dihydropyridin-2(1H)-one] | – | 15 µM | IC50 (human recombinant ALR2; SAR studies text, read-out: IC50, in-vitro aldose reductase inhibition): 60 µM |
| pipernal | – | 310 µM | – |
| COc1cc(C(CC(=O)N2CCC(c3cn(Cc4ccccc4)c4ccccc34)CC2=O)c2cn(Cc3ccccc3)c3ccccc23)cc(OC)c1OC (stereo not shown) [3c, 1-(3-(1-benzyl-1H-indol-3-yl)-3-(3,4,5-trimethoxyphenyl)propanoyl)-4-(1-benzyl-1H-indol-3-yl)piperidin-2-one] | 58.5% | 4 µM | – |
| COc1cc(/C=C/C(=O)N2CCC=CC2=O)cc(OC)c1OC [Piplartine, 5,6-dihydro-1-((E)-3-(3,4,5-trimethoxyphenyl)acryloyl)pyridin-2(1H)-one] | – | 160 µM | – |
| COc1ccc2[nH]cc(C(CC(=O)N3CCC=CC3=O)c3cc(OC)c(OC)c(OC)c3)c2c1 (stereo not shown) [2j, 1-(3-(5-methoxy-1H-indol-3-yl)-3-(3,4,5-trimethoxyphenyl)propanoyl)-5,6-dihydropyridin-2(M)-one] | 64.9% | 8 µM | – |
| COC(=O)/C=C/c1cc(OC)c(OC)c(OC)c1 [compound 5, (E)-methyl 3-(3,4,5-trimethoxyphenyl)acrylate] | – | – | ALR2 inhibitory activity (in words) (human recombinant ALR2): inactive |
